Experimental data reported in US4816560A, “Partially retro-inverted tuftsin analogues, method for the preparation thereof and pharmaceutical compositions containing them” (priority 1986, dated 1989).

Tested on: peritoneal M.phi. from normal C3H/HeN mice
Test: macrophage (M.phi.) phagocytic stimulation assay (ingestion of killed yeast cells, Zymosan)
Assay type: cell-based
Excerpt: The compounds of formula I, including the pharmaceutically acceptable esters, amides and salts, are active as immunostimulating agents. […] This assay, carried out in comparison with tuftsin, has been performed according to a modification of the method described by Bar-Shavit et al. in J.Cell.Physiol., 100, p.55 (1979). More particularly, peritoneal M.phi. from normal C3H/HeN mice are harvested by washing of the peritoneal cavity and purified by adherence as described in J.Immunol., 132, p.1987 (1984). Monolayers of 1×10^6 adherent peritoneal cells (95-98% of the monocyte-M.phi. series as judged by morphology and latex phagocytosis) are cultured for 20 h at 37° C. in RPMI-1640 medium supplemented with 50 μg/ml gentamycin, 25 mM HEPES buffer, 2 mM L-glutamine and 10% heat-inactivated fetal bovine serum (FBS). At the end of the incubation, M.phi. are washed and then exposed for 15 minutes at 37° C. to 1.3 ml/plate of culture medium either alone (blank) or containing tuftsin or a compound of the invention at different concentrations. A 1.5×10^8 cells/ml suspension of killed yeast cells (Zymosan)(0.2 ml) is then added to the plates. M.phi. are incubated for 60 minutes at 37° C., then washed, fixed (2% glutaraldehyde in PBS, 30 minutes, 4° C.) and stained. The percentage of phagocyting M.phi. and the number of ingested Zymosan cells is measured with an optical microscope equipped with a 100x immersion objective. In a representative experiment aimed at comparing the activity of tuftsin with that of the corresponding retro-inverso analogue of example 1, it has been observed that all M.phi. were capable of phagocyting zymosan in the above described conditions.
As the poor therapeutical applicability of tuftsin is mainly due to its low stability and to the consequent rapid loss of biological activity, the phagocytosis assay has been repeated comparing the activity of tuftsin and its retro-inverso analogue of example 1, stored for 14 days in solution at 4° C. […] At the concentration of 10^-6 M in fact the compound of Example 1 gave a number of ingested zymosan cells per 100 phagocyting macrophages of 1.8×10^3 (with an immunopotentiating effect corresponding therefore to 136% of the control).

[1] = peptide stored for 14 days in solution at 4° C., concentration 10^-6 M

Substance: {(2RS)-2-[N-(1-amino-2-hydroxy-propyl)carbamyl]-6-amino}-hexanoyl-L-prolyl- L-arginine [Example 1]
- number of ingested yeast cells (in words) (fresh peptide, linearly dependent on peptide concentration): significantly increased
- ingested zymosan cells, % of the control (peptide concentration 3×10^-7 M): 170 % of the control
- ingested zymosan cells per 100 macrophages (peptide concentration 3×10^-7 M, 15 min exposure, then 60 min with Zymosan at 37° C.): 2.2×10^3 ingested zymosan cells per 100 macrophages
- ingested zymosan cells per 100 phagocyting macrophages (peptide concentration 10^-6 M): 2.44×10^3 ingested zymosan cells per 100 phagocyting macrophages
- ingested zymosan cells, % of the control (peptide concentration 10^-6 M): 188 % of the control
- phagocytosis stimulation (in words) (peptide stored for 14 days in solution at 4° C.): still significant even if less than above
- immunopotentiating effect, % of the control [1]: 136 % of the control
- ingested zymosan cells per 100 phagocyting macrophages [1]: 1.8×10^3 ingested zymosan cells per 100 phagocyting macrophages
